Source: patent US9428477B2, “Trans-2-decenoic acid derivative and drug containing same” (NIPPON ZOKI PHARMACEUTICAL CO., LTD., priority 2012, dated 2016)

Key:
[1] = system: rats with paclitaxel-induced peripheral nerve disorder; assay: Rat peripheral nerve disorder induced by paclitaxel, von Frey test; type: in vivo; settings: ip, test drug intraperitoneally, single dose, higher of values 1 and 5 hours after administration, mechanical stimulus of right hind limb, normal threshold 15, read-out: Recovery Rate of 50% Reaction Threshold Value
Experimental: The effects of the compounds of the present invention were evaluated for a peripheral nerve disorder which is a side effect induced by the administration of an anti-cancer agent paclitaxel, such as hyperesthesia including allodynia induced by mechanical stimuli, which is a severe pain induced by such tactile stimuli which usually cause no pains. The compound of the present invention was intraperitoneally administered to rats as a test drug to conduct a von Frey test.
Male SD rats of six weeks age (six rats per group) were used as experimental animals, and paclitaxel (2 mg/kg) was intraperitoneally administered every other day for four times in total to prepare rats with paclitaxel-induced peripheral nerve disorder. During the period of 18 to 25 days or during the period of 20 to 27 days after the initiation of paclitaxel administration, the test drug was intraperitoneally administered in a single dose of […], and the following von Frey test was conducted.
The rats of the above (1) were placed in a transparent acrylic cage with a wire-meshed floor and habituated for about three minutes, and the 50% reaction threshold values to the mechanical stimulus of right hind limb were measured before administration of the test drug and after 1 and 5 hours from the initiation of the administration.
The measurement was conducted using von Frey filaments (manufactured by North Coast Medical Inc.) in accordance with the methods of Chaplan, et al. (Journal of Neuroscience Methods, 53(1), 55-63, 1994) and Dixon, et al. (Annual Review of Pharmacology and Toxicology, 20, 441-462, 1980). […] The case where the rat escaped at the instance of removing the filament was also called positive. When the positive reaction was found, stimulus was applied similarly with a filament of one rank weaker, and in the absence of the reaction, stimulus was similarly applied with a filament of one rank stronger, and a point where the reaction changed from negative to positive or from positive to negative was called the first two reactions. Subsequently, stimuli were applied for continuously four times by the same up-down method. A 50% reaction threshold value to the mechanical stimulus was measured using the reaction to the six stimuli in total and then (mean value)±(standard error) for each group was calculated. Incidentally, when stimulus reached to a load of 15.0 g without positive reaction, or when positive reaction continued to a load of 0.4 g, 15.0 g or 0.25 g was adopted as each of 50% reaction threshold values. With regard to the higher 50% reaction threshold value between the 50% threshold values after 1 hour and 5 hours from administration of a test drug, a recovery rate (%) of the 50% reaction threshold value was calculated by the following expression in which 15 was taken as a normal threshold value.
Recovery rate (%) of 50% reaction threshold value=[(50% reaction threshold value after 1 hour or 5 hours from administration of test drug)−(50% reaction threshold value before administration of test drug)]/[(Normal threshold value)−(50% reaction threshold value before administration of test drug)]×100

MAP kinase (ERK 1/2) = assay: Activation (phosphorylation) of MAP kinase in cultured cerebral cortex nerve cells, Western immunoblotting; type: cell-based; settings: 0.5 h; fetal rat cerebral cortex nerve cells; compound 250 μg/ml in 0.1% DMSO; 30 minutes; relative to control = 1.00; read-out: Ratio of pMAPK to MAPK
Experimental: With regard to the compounds of the present invention, the activation of MAP kinase (ERK 1/2) was measured in accordance with a Western immunoblotting in the following manner.
Nerve cells were dispersed from cerebral cortex of a fetal rat of 17 days age, and the nerve cells were cultured for one day in a Dulbecco's modified Eagle's medium (DMEM) containing 5% fetal bovine serum. The culture medium was exchanged with a serum-free medium (B27 supplemented Neurobasal; Invitrogen), and the nerve cells were cultured at the density of 20,000 to 40,000 cells/cm^2 in a polyornithine-coated culture dish.
After three days, the compound of the present invention was added, and the culture was continued for 30 minutes. Thereafter, the cells were recovered on ice using a solution containing a phosphatase inhibitor where Tris-HCl buffer was used as a base. The protein concentration of the resulting cell extract was quantified with a BCA Protein Assay Kit (Takara Bio Co., Ltd.), and a certain amount of the protein (3 μg for the measurement of MAP kinase and 5 μg for the measurement of phosphorylated MAP kinase) was subjected to polyacrylamide gel electrophoresis. The protein was transferred from the electrophoresed gel to a PVDF membrane, and Western immunoblotting was carried out using each of an anti-MAP kinase antibody (Cell Signaling Technology) and an anti-phosphorylated MAP kinase antibody (Cell Signaling Technology) of the primary antibody.
Subsequently, the reaction with an alkaline phosphatase-labeled anti-rabbit IgG antibody (Promega) of the secondary antibody was carried out, and the enzymatic activity was allowed to develop color, to measure MAP kinase (MAPK) and the phosphorylated MAP kinase (pMAPK).
Incidentally, each of the compounds of the present invention was dissolved in 0.1% DMSO to adjust its concentration to 250 μg/ml. As to the control, 0.1% DMSO was added.
The intensity of the concentration of the bands of eletrophoresed the gel was calculated and quantified using Image J (K. K. Bioarts). The numerical values for the MAPK when using the compounds of the present invention were each divided by the numerical value for the MAPK of the control, and the numerical values for the pMAPK when using the compounds of the present invention were divided by the numerical value for the pMAPK of the control, whereby a ratio of the MAPK when using each of the compounds of the present invention to the control, and a ratio of the pMAPK when using each of the compounds of the present invention to the control were obtained. Subsequently, the ratio of the pMAPK to the control obtained was divided by the ratio of the MAPK to the control to obtain a ratio of the pMAPK to the MAPK.

| Structure (SMILES) | change in vivo at 0.3 mg/kg [1] [%] | melting point | fold induction at 250 µg/mL (MAP kinase (ERK 1/2)) |
| --- | --- | --- | --- |
| CCCCCCC/C=C/C(=O)N1CCCN(CCN(C)C)CC1 [Compound 34, 1-((E)-2-Decenoyl)-4-(2-dimethylaminoethyl)-[1,4]diazepane] | 35.5 | – | – |
| CCCCCCC/C=C/C(=O)N1CCN(Cc2ccc(C(=O)O)cc2)CC1 [Compound 48, 4-[[4-((E)-2-Decenoyl)piperazin-1-yl]methyl]benzoic acid] | 56.4 | 114 to 116 °C | – |
| CCCCCCC/C=C/C(=O)N1CCN(c2ccc(F)cc2)CC1 [Compound 44, 1-((E)-2-Decenoyl)-4-(4-fluorophenyl)piperazine] | 42.6 | – | – |
| CCCCCCC/C=C/C(=O)N1CCN(CC(=O)O)CC1.Cl [Compound 39, [4-[(E)-2-Decenoyl]piperazin-1-yl]acetic acid hydrochloride] | 16.6 | 195 °C (dec.) | – |
| CCCCCCC/C=C/C(=O)N1CCN(c2ccc(C)cc2)CC1 [Compound 43, 1-((E)-2-Decenoyl)-4-(4-methylphenyl)piperazine] | 31.3 | 45 to 46 °C | – |
| CCCCCCC/C=C/C(=O)N1CCC(c2ccc(Cl)cc2)CC1 [Compound 38, 1-((E)-2-Decenoyl)-4-(4-chlorophenyl)piperidine] | 55.5 | – | – |
| CCCCCCC/C=C/C(=O)N1CCN(c2ccccc2Cl)CC1 [Compound 45, 1-((E)-2-Decenoyl)-4-(2-chlorophenyl)piperazine] | 33.3 | – | – |
| CCCCCCC/C=C/C(=O)N1CCN(CCCC(=O)O)CC1.Cl [Compound 40, 4-[4-[(E)-2-Decenoyl]piperazin-1-yl]butanoic acid hydrochloride] | 61.6 | 203 to 205 °C | – |
| CCCCCCC/C=C/C(=O)N1CCN(c2ccc(OC)cc2)CC1 [Compound 42, 1-((E)-2-Decenoyl)-4-(4-methoxyphenyl)piperazine] | 45.8 | 50 to 52 °C | – |
| CCCCCCC/C=C/C(=O)N1CCCN(C)CC1 [Compound 33, 1-((E)-2-Decenoyl)-4-methyl-[1,4]diazepane] | 33.4 | – | – |
| CCCCCCC/C=C/C(=O)N1CCN(c2ccncc2)CC1 [Compound 29, 1-((E)-2-Decenoyl)-4-(pyridin-4-yl)piperazine] | 42.8 | – | – |
| CCCCCCC/C=C/C(=O)N1CCC(C)CC1 [Compound 6, 1-((E)-2-Decenoyl)-4-methylpiperidine] | 33.8 | – | 1.71 |
| CCCCCCC/C=C/C(=O)N1CCC(CCN(C)C)CC1 [Compound 15, 1-((E)-2-Decenoyl)-4-(2-dimethylaminoethyl)piperidine] | 34.2 | – | – |
| CCCCCCC/C=C/C(=O)N1CCSCC1 [Compound 18, 4-((E)-2-decenoyl)thiomorpholine] | 48.9 | – | 1.28 |
| CCCCCCC/C=C/C(=O)N1CCC(N(CC)CC)CC1 [Compound 13, 1-((E)-2-Decenoyl)-4-diethylaminopiperidine] | 23.2 | – | 1.63 |
| CCCCCCC/C=C/C(=O)N1CCC(CCC(=O)O)CC1 [Compound 36, 3-(1-((E)-2-Decenoyl)-4-piperidyl)propanoic acid] | 42 | – | – |
| CCCCCCC/C=C/C(=O)N1CCN(c2ccccn2)CC1 [Compound 30, 1-((E)-2-Decenoyl)-4-(pyridin-2-yl)piperazine] | 22.6 | – | – |

| Structure (SMILES) | change in vivo at 0.3 mg/kg [1] [%] | melting point | fold induction at 250 µg/mL (MAP kinase (ERK 1/2)) |
| --- | --- | --- | --- |
| CCCCCCC/C=C/C(=O)N1CCOCC1 [Compound 17, 4-((E)-2-Decenoyl)morpholine] | 30.6 | – | – |
| CCCCCCC/C=C/C(=O)N1CCC(OC)CC1 [Compound 9, 1-((E)-2-Decenoyl)-4-methoxypiperidine] | 35.6 | – | – |
| CCCCCCC/C=C/C(=O)N1CCN(c2ncccn2)CC1 [Compound 31, 1-((E)-2-Decenoyl)-4-(pyrimidin-2-yl)piperazine] | 22.9 | – | – |
| CCCCCCC/C=C/C(=O)N1CCC[C@H]1C(=O)O [Compound 2, (S)-1-((E)-2-Decenoyl)pyrrolidine-2-carboxylic acid] | 23.5 | – | 1.28 |
| CCCCCCC/C=C/C(=O)N1CCN(c2ccc(OCC(=O)O)cc2)CC1 [Compound 47, 2-[4-[4-((E)-2-Decenoyl)piperazin-1-yl]phenoxy]acetic acid] | 54.5 | 210 °C (dec.) | – |
| CCCCCCC/C=C/C(=O)N1CCN(CCN2CCCCC2)CC1 [Compound 24, 1-((E)-2-Decenoyl)-4-(2-piperidin-1-ylethyl)piperazine] | 49.7 | – | 2.58 |
| CCCCCCC/C=C/C(=O)N1CCSC1 [Compound 4, 3-((E)-2-Decenoyl)thiazolidine] | 43.7 | – | 1.47 |
| CCCCCCC/C=C/C(=O)N1CCC(CC(=O)O)CC1 [Compound 35, 2-(1-((E)-2-Decenoyl)-4-piperidyl)acetic acid] | 41.2 | 65 to 66 °C | – |
| CCCCCCC/C=C/C(=O)N1CCCCCC1 [Compound 32, 1-((E)-2-Decenoyl)azepane] | 51.1 | – | – |
| CCCCCCC/C=C/C(=O)N1CCN(C)CC1 [Compound 19, 1-((E)-2-Decenoyl)-4-methylpiperazine] | 19.8 | – | – |
| CCCCCCC/C=C/C(=O)N1CCN(c2ccc(O)cc2)CC1 [Compound 46, 1-((E)-2-Decenoyl)-4-(4-hydroxyphenyl)piperazine] | 53.7 | 85 to 87 °C | – |
| CCCCCCC/C=C/C(=O)N1CCC(c2ccccc2)CC1 [Compound 16, 1-((E)-2-Decenoyl)-4-phenylpiperidine] | 38.6 | – | – |
| CCCCCCC/C=C/C(=O)N1CCC(C#N)CC1 [Compound 37, 1-((E)-2-Decenoyl)-4-cyanopiperidine] | 22.4 | – | – |
| CCCCCCC/C=C/C(=O)N1CCC(O)CC1 [Compound 8, 1-((E)-2-Decenoyl)-4-hydroxypiperidine] | 49.7 | – | – |
| CCCCCCC/C=C/C(=O)N1CCN(c2ccc(N(C)C)cc2)CC1 [Compound 28, 1-((E)-2-Decenoyl)-4-(4-dimethylaminophenyl)piperazine] | 20.3 | 73 to 74 °C | – |
| CCCCCCC/C=C/C(=O)N1CCN(c2ccc(Cl)cc2)CC1 [Compound 41, 1-((E)-2-Decenoyl)-4-(4-chlorophenyl)piperazine] | 81.5 | – | – |
